From patent US20120316144A1, “ANTIFUNGAL AGENT” (priority 2010, published 2012) come the findings set out here.

The test system of experiment [1] is Malassezia. Description: Antifungal (Malassezia) paper disk test of fractionated ingredients of mastic normal-hexane extract with squalene. Type of experiment: cell-based. The settings on record: for diameter of antiproliferative circle, First time / diameter of antiproliferative circle, Second time / diameter of antiproliferative circle, Average: Malassezia, Mueller-Hinton media, fraction 5 mg/disk + squalene 25 mg/disk; for diameter of antiproliferative circle, Average: average of two runs; for anti-Malassezia activity (in words): combination with squalene, summary of Table 4. Here is the method: The fractions fractionated in the first example were respectively dissolved in acetone. Paper disks for antibiotic assay which are the same as the paper disks for antibiotic assay used in the third example were impregnated with the obtained respective fraction solutions of 5 mg/disk. Moreover, squalene was added to each of the paper disks for antibiotic assay by 25 mg/disk, to prepare disks to be tested. Then, the respective disks to be tested were vacuum-dried to eliminate the acetone. Further, the Malassezia prepared to be approximately 10^6 CFU/ml was applied to the Mueller-Hinton media. Next, the respective disks to be tested were placed on the Mueller-Hinton media, and cultured for two days under an aerobic condition at 37° C. Then, the diameters (mm) of antiproliferative circles formed around the respective disks to be tested were measured.

In experiment [2] the test system is Malassezia. Description: Antifungal (Malassezia) paper disk test of mastic normal-hexane extract and squalene. Type of experiment: cell-based. The following applies: Mueller-Hinton media, squalene 25 mg/disk alone. Here is the method: Mastic normal-hexane extract (MH) was dissolved in acetone. Then, paper disks for antibiotic assay which are the same as the paper disks for antibiotic assay used in the third example were impregnated with the obtained MH solution, to prepare a disk to be tested impregnated with the MH solution of 5 mg/disk, a disk to be tested impregnated with the MH solution of 10 mg/disk, and a disk to be tested impregnated with the MH solution of 20 mg/disk. These disks to be tested were prepared two each, respectively. Further, the S solution, which was obtained by dissolving squalene (S) in acetone, was added to each of some disks to be tested prepared in this way by 25 mg/disk, to prepare disks of mixture of the mastic normal-hexane extract and squalene (MH+S) as well. Further, as standard controls, paper disks for antibiotic assay which are the same as the paper disks for antibiotic assay used in the third example were impregnated with the S solution of 25 mg/disk, to prepare a disk to be tested. Then, the respective disks to be tested were vacuum-dried to eliminate the acetone. Further, the Malassezia prepared to be approximately 10^6 CFU/ml was applied to the Mueller-Hinton media. […] Then, the diameters (mm) of antiproliferative circles formed around the respective disks to be tested were measured.

Regarding `CC1(C)C=C2C(=CC[C@]3(C)C2CC[C@@H]2[C@@]4(C)CCC(=O)C(C)(C)[C@@H]4CC[C@]23C)CC1` (stereo partly shown) [Fr. 1, 3-oxo-28-norolean-16,18-diene], in experiment [1], the “diameter of antiproliferative circle, First time” value (“diameter … First time” below) was 25 mm; the “diameter of antiproliferative circle, Second time” value (shortened to “diameter … Second time”) amounted to 22 mm; the “diameter of antiproliferative circle, Average” value (from here on “diameter … Average”) turned out to be 23.5 mm; the “anti-Malassezia activity (in words)” value was “potent anti-Malassezia activity”.
For `CC1(C)CC[C@]2(C=O)CC[C@]3(C)C(=CC[C@@H]4[C@@]5(C)CCC(=O)C(C)(C)[C@@H]5CC[C@]43C)C2C1` (stereo partly shown) [Fr. 3, olean-12-en-3,28-dione] the same measures were 25 mm, 25 mm, 25 mm and “potent anti-Malassezia activity”.
For the molecule `CC(C)=CCC[C@H](C)[C@@H]1CC[C@]2(C)C3=C(CC[C@@]12C)[C@@]1(C)CC[C@H](O)C(C)(C)[C@@H]1CC3` [Fr. 5-1, Tirucallol], the “anti-Malassezia activity (in words)” value in experiment [1] is “potent anti-Malassezia activity”.
Still for that read-out and setting: the same measure for `CC1(C)CC[C@]2(C)CC[C@]3(C)C(=CC[C@@H]4[C@@]5(C)CC[C@H](O)C(C)(C)[C@@H]5CC[C@]43C)C2C1` (stereo partly drawn) [Fr. 5-2, β-amylin]: “potent anti-Malassezia activity”.
In the case of `CC1(C)CCC2(O)CC[C@]3(C)C(=CC[C@@H]4[C@@]5(C)CCC(=O)C(C)(C)[C@@H]5CC[C@]43C)C2C1` (stereo partly shown) [Fr. 6, 3-oxo-17-hydroxy-norolean-12-ene], in experiment [1], the “diameter … First time” value turned out to be 21 mm; the “diameter … Second time” value is recorded as 19 mm; the “diameter … Average” value was 20 mm; the “anti-Malassezia activity (in words)” value was “potent anti-Malassezia activity”.
`CC(C)=CCC[C@](C)(O)[C@H]1CC[C@]2(C)C1CCC1[C@@]3(C)CCC(=O)C(C)(C)[C@@H]3CC[C@]12C` (stereo partly shown) [Fr. 8, 3-oxo-20-hydroxy-dammar-24-ene]: in experiment [1], the “diameter … First time” value is recorded as 25 mm; the “diameter … Second time” value came to 24 mm; the “diameter … Average” value amounted to 24.5 mm; the “anti-Malassezia activity (in words)” value was “potent anti-Malassezia activity”.
Regarding `CC(C)=CCC/C(C)=C/CC/C(C)=C/CC/C=C(\C)CC/C=C(\C)CCC=C(C)C` [S, squalene], the “Antiproliferative Circles (mm)” value in experiment [2] was found to be 11 mm.
